Reference: patent US20230167088A1, “1-PYRAZINYLPYRAZOLYL-3-OXYALKYL ACIDS AND THEIR DERIVATIVES, AND THEIR USE FOR CONTROL OF UNDESIRED PLANT GROWTH” (BAYER AKTIENGESELLSCHAFT, priority 2020, published 2023)

Assays:
VERPE = test: Herbicidal post-emergence action 1a (greenhouse pots, visual rating); format: in vivo, Veronica persica; details: visual rating about 3 weeks after treatment
Method in brief: (§1)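 Visual scoring versus untreated plants (100% = plants dead, 0% = as control) followed roughly 3 weeks in the greenhouse after treatment. Plants grown in sandy loam pots had been sprayed on green parts at the one-leaf stage, 2–3 weeks post-sowing, with aqueous WP/EC preparations containing 0.5% additive, 600 l/ha, at 320 and/or 80 g/ha.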

ALOMY = test: Herbicidal pre-emergence action 2a (greenhouse pots, visual scoring); format: in vivo, Alopecurus myosuroides; details: dosage 320 g/ha, visual scoring after about 3 weeks
Method in brief: (§2)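 Percent effect (0% like control, 100% plants died) was scored by eye roughly 3 weeks post-application. Formulated compound went onto the soil covering freshly sown seeds in water at 600 l/ha with 0.5% additive; dose 320 g/ha and/or 80 g/ha.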

MATIN = test: Herbicidal pre-emergence action 2b (doubly sown, 1280 g/ha); format: in vivo, Matricaria inodora; details: doubly sown pots, dosage 1280 g/ha, visual scoring after about 3 weeks
Method in brief: (§3)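 Compounds were sprayed pre-emergence as wettable powders or emulsion concentrates onto soil covering freshly sown weed seeds, two species per pot. Percent activity was judged by eye roughly 3 weeks later versus untreated plants.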

STEME = test: as above; format: in vivo, Stellaria media; details: doubly sown pots, dosage 1280 g/ha, visual scoring after about 3 weeks
Method in brief: as §3

LOLRI [1] = test: Herbicidal post-emergence action 1a (greenhouse pots, visual rating); format: in vivo, Lolium rigidum; details: rated visually about 3 weeks after treatment, 100% = plants have died, 0% = like control plants
Method in brief: as §1

LOLRI [2] = test: Herbicidal pre-emergence action 2a (greenhouse pots, visual scoring); format: in vivo, Lolium rigidum; details: dosage 320 g/ha, visual scoring after about 3 weeks vs untreated controls
Method in brief: as §2

AMARE [3] = test: as above; format: in vivo, Amaranthus retroflexus; details: dosage 320 g/ha, visual scoring after about 3 weeks vs untreated controls
Method in brief: as §2

harmful plants = test: Herbicidal post-emergence action 1a, summary across species; format: in vivo; details: Tables A1 to A15 (320 g/ha and/or 80 g/ha)
Procedure: a) Seeds of monocotyledonous and dicotyledonous weeds and crop plants are placed in sandy loam in plastic or organic plant pots, covered with soil and cultivated in a greenhouse under controlled growth conditions. 2 to 3 weeks after sowing, the test plants are treated at the one-leaf stage. The compounds of the invention, formulated in the form of wettable powders (WP) or as emulsion concentrates (EC), are then sprayed onto the green parts of the plants as aqueous suspension or emulsion with addition of 0.5% additive at a water application rate of 600 1/ha (converted). After the test plants have been kept in the greenhouse under optimum growth conditions for about 3 weeks, the activity of the preparations is rated visually in comparison to untreated controls. For example, 100% activity=the plants have died, 0% activity=like control plants.
Tables A1 to A15 below show the effects of selected compounds of the general formula (I) according to Tables 1 and 2 on various harmful plants and an application rate corresponding to 320 g/ha and/or 80 g/ha, which were obtained by the experimental procedure mentioned above.
For example, compound nos. I-05, I-07, I-08, I-10, I-12, I-16, I-17, I-22, I-36, I-37, I-39 and I-40 in the post-emergence method have very good action (80% to 100% herbicidal activity) against harmful plants such as Alopecurus myosuroides, Amaranthus retroflexus, Avena fatua, Lolium rigidum, Polygonum convolvulus, Setaria viridis, Veronica persica and Viola tricolor at an application rate of 0.32 kg of active substance per hectare.

AMARE [4] = test: Herbicidal post-emergence action 1a (greenhouse pots, visual rating); format: in vivo, Amaranthus retroflexus; details: visual rating about 3 weeks after treatment
Method in brief: as §1

VIOTR = test: as above; format: in vivo, Viola tricolor; details: visual rating about 3 weeks after treatment
Method in brief: as §1

POLCO = test: as above; format: in vivo, Polygonum convolvulus; details: dosage 320 g/ha, visual rating about 3 weeks after treatment
Method in brief: as §1

Structure (SMILES)	Post-emergence action against VERPE in % (VERPE; dosage 80 g/ha)	Post-emergence action against VERPE in % (VERPE; dosage 320 g/ha)	Pre-emergence action against ALOMY in % (ALOMY)	Pre-emergence action at 1280 g/ha against MATIN in % (MATIN)	Pre-emergence action at 1280 g/ha against STEME in % (STEME)	Post-emergence action against LOLRI in % (LOLRI [1]; Dosage 320 g/ha)	Pre-emergence action against LOLRI in % (LOLRI [2])	Pre-emergence action against AMARE in % (AMARE [3])	herbicidal efficacy against harmful plants in the case of post-emergence treatment (in words) (harmful plants)	Post-emergence action against AMARE in % (AMARE [4]; dosage 320 g/ha)	Post-emergence action against VIOTR in % (VIOTR; dosage 80 g/ha)	Post-emergence action against VIOTR in % (VIOTR; dosage 320 g/ha)	Post-emergence action against POLCO in % (POLCO)	Post-emergence action against AMARE in % (AMARE [4]; dosage 80 g/ha)	Post-emergence action against LOLRI in % (LOLRI [1]; Dosage 80 g/ha)
COC(=O)C(C)Oc1nn(-c2cnccn2)c(-c2ccnc(F)c2)c1Br (racemic) [Example I-10]	80%	90%	100%	90%	100%	90%	100%	90%	good herbicidal efficacy	80%	90%	100%			
COC(=O)C(C)Oc1nn(-c2cnccn2)c(-c2ccc(F)nc2)c1Br (racemic) [Example I-12]	80%	90%	100%	90%	100%	90%	100%	100%	good herbicidal efficacy	80%	90%	100%	90%	80%	
COC(=O)C(C)Oc1nn(-c2cnccn2)c(-c2ccc(F)c(F)c2)c1Br (racemic) [Example I-16]		80%	90%	100%	100%	90%	100%	100%	good herbicidal efficacy	90%	80%	90%	90%		
COC(=O)C(C)Oc1nn(-c2cnccn2)c(-c2ccc(F)c(F)c2)c1C#N (racemic) [Example I-22]	80%	90%	100%	90%	100%	100%	100%	90%	good herbicidal efficacy	90%	80%	90%	80%	90%	80%
COC(=O)COc1nn(-c2cnccn2)c(-c2ccc(F)nc2)c1Br [Example I-11]	90%	90%	100%	90%	100%		100%	90%	good herbicidal efficacy	90%	90%	100%	90%	90%	
